Laboratory results taken from PMC7686103 (Bioorganic & medicinal chemistry letters, 2020).

Legend:
hCB2 receptors = hCB2 receptors (Homo sapiens, UniProt P34972); test: [35S]GTPγS binding, modulation of G-protein activity in CHO-hCB2 cell membranes; type: biochemical; conditions: 10 μM
hCB1 receptors = hCB1 receptors (Homo sapiens, UniProt P21554); test: [35S]GTPγS binding, modulation of G-protein activity in CHO-hCB1 cell membranes; type: biochemical; conditions: 10 μM
Sequence of hCB1 receptors (P21554 whole entry): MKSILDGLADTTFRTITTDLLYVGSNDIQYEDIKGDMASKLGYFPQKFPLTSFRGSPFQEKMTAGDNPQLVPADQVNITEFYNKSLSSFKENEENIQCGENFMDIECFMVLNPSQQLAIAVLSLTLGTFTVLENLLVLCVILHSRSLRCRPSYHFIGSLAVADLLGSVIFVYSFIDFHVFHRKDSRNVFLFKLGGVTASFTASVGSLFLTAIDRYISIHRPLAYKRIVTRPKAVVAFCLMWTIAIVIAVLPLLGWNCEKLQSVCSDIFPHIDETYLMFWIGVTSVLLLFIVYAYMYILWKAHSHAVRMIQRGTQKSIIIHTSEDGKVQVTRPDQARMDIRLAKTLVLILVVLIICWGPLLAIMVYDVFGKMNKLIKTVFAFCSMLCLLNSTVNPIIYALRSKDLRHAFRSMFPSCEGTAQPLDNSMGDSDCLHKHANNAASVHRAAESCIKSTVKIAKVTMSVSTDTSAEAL

Sequence of hCB2 receptors (P34972 whole entry): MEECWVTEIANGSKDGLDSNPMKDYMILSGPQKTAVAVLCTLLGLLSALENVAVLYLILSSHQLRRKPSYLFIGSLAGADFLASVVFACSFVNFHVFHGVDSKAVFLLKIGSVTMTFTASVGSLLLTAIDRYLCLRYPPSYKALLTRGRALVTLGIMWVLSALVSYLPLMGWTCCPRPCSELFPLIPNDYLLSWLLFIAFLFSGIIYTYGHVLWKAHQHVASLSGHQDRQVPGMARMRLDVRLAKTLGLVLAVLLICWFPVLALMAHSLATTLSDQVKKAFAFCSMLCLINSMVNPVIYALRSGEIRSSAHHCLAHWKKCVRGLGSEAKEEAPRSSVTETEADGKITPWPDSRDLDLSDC

For `COc1ccc(C(=O)c2c(C)n(CCN3CCOCC3)c3cc(I)ccc23)cc1` [AM-630, reference compound], which “Intrinsic activity at hCB2 receptors (modulation of [35S]GTPγS binding)” value (“Intrinsic activity at hCB2 receptors” for short) (hCB2 receptors) is on record?
Its value is “inverse agonist activity”.

How did the “Intrinsic activity at hCB1 receptors (modulation of [35S]GTPγS binding)” value (shortened to “Intrinsic activity at hCB1 receptors”) (hCB1 receptors) turn out when `O=C1/C(=C/c2cn(Cc3ccccc3)c3ncccc23)N2CCC1CC2` [Compound 8a] was run?
Its value is “neutral antagonist”.

What about the “Intrinsic activity at hCB2 receptors” value (hCB2 receptors) of the same compound?
The value was “neutral antagonist”.

For `O=C1/C(=C/c2cn(Cc3ccc(Cl)cc3)c3ncccc23)N2CCC1CC2` [Compound 8b], which “Intrinsic activity at hCB1 receptors” value (hCB1 receptors) is on record?
Its value is “inverse agonist activity”.

And the “Intrinsic activity at hCB2 receptors” value (hCB2 receptors)?
Its value is “inverse agonist activity”.

How did the “Intrinsic activity at hCB1 receptors” value (hCB1 receptors) turn out when `O=C1/C(=C/c2cn(Cc3ccc(Br)cc3)c3ncccc23)N2CCC1CC2` [Compound 8f] was run?
Its value is “inverse agonist”.

What about the “Intrinsic activity at hCB2 receptors” value (hCB2 receptors) of the same compound?
The value was “neutral antagonist”.

`O=C1/C(=C/c2cn(Cc3ccc(F)cc3)c3ncccc23)N2CCC1CC2` [Compound 8g] was tested. Which “Intrinsic activity at hCB1 receptors” value (hCB1 receptors) did it give?
The value was “neutral antagonist”.

What about the “Intrinsic activity at hCB2 receptors” value (hCB2 receptors) of the same compound?
Its value is “partial agonist”.
